Measured values: ChEMBL document CHEMBL1149747, “Diterpene metabolites from two chemotypes of the marine sponge Myrmekioderma styx” (J Nat Prod, 1992)
Values after ≈ are worked out from the molar mass of the structure shown.

How the values were obtained:
P388 = experiment: Cytotoxicity against mouse P388 cells; assay type: functional, cell-based
A549 = experiment: Cytotoxicity against human A549 cells; assay type: functional, cell-based

SMILES | IC50 (P388) [µg/mL] | IC50 (A549) [µg/mL]
CC1=CC[C@@]2(C)CC[C@@]3(C)[C@H](O)C=C(C(C)C)[C@H]3C2CC1 (stereo partly specified) | 11.2 (≈ 38.8 µM) | 4 (≈ 13.9 µM)
C=CC(C)(O)/C=C/C=C(\C)CC/C=C(\C)CC(=O)C=C(C)C (stereo unspecified) [STYXENOL A] | 5 (≈ 16.5 µM) | 6.1 (≈ 20.2 µM)
CC(=O)O[C@@H]1C[C@]2(C)C[C@@H]3O[C@]3(C)CCC2[C@@H]2C(C(C)C)=CC[C@]12C (stereo partly specified) | 5.6 (≈ 16.2 µM) | 7 (≈ 20.2 µM)
